Test results: paper PMC11840605, “Crystallographic and Thermodynamic Evidence of Negative Coupling in the Flavin-Dependent Tryptophan Halogenases AbeH and BorH” (ACS Omega, 2025)
Where “and” joins values, the source holds several entries; their conditions need not be identical. Equal entries are not always repeated. Entries after “also recorded” stand apart in the source; their conditions may differ.

Experiments:
[1] = target: T1, BorH (uncultured bacterium, UniProt M9QSI0); assay: In vitro halogenation of aromatic substrates by BorH (with BorF, NADH, NaCl or NaBr; RP-HPLC); format: biochemical, uncultured soil actinomycetes; conditions: for BorH bromination compared with chlorination of the substrate, in words: same reaction conditions; for Halogenation (chlorination/bromination) of the substrate by BorH, in words: NaCl or NaBr reaction
T1 sequence (M9QSI0 1-529): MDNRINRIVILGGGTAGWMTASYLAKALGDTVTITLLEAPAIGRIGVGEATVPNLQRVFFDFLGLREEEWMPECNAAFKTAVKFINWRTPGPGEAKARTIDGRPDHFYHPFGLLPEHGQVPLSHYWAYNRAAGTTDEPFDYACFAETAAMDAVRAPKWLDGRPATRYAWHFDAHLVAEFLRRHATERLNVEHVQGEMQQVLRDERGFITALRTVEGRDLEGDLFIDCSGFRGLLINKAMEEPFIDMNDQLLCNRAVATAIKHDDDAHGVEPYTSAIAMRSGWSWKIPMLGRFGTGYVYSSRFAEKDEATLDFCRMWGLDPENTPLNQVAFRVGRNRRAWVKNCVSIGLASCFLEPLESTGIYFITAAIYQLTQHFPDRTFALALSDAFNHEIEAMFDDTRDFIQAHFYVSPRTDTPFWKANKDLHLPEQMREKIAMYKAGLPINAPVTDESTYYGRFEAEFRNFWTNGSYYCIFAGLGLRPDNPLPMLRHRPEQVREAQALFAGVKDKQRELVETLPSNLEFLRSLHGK
Method: (§1) To test the ability of BorH and AbeH to chlorinate and brominate other substrates, 100 μL reactions containing 5 μM AbeH or BorH, 10 μM of holo-AbeF or holo-BorF, 100 mM NaCl or NaBr, 2.5 mM NADH, and 0.5 mM substrate in HEPES pH 8.0 were incubated for 12 h at 37 °C with shaking at 230 rpm. The reactions were stopped by heating at 95 °C for 5 min and centrifuged at 12,000g for 5 min. Clarified reaction mixtures were analyzed using RP-HPLC on a Kromasil C18 column (100 Å pore size, 4.6 × 250 mm) mounted on a Waters 2695 HPLC. The gradient was as follows: 0–7.5 min, 5–50% B; 7.5–14 min, 50–100%; 14–25 min, 100% B; 25–40 min 100–5% B with flow rate 0.6 mL/min (Solvent A = H2O/CH3CN 95:5, 0.1% TFA; Solvent B = H2O/CH3CN 5/95, 0.1% TFA). Substrates and products were detected by monitoring UV absorbance at the λmax for each substrate. Product peak fractions were analyzed using ESI-MS on a SYNAPT HDMS mass spectrometer in positive ion mode with leucine enkephalin internal standard.

[2] = target: T2, AbeH (uncultured bacterium, UniProt F6LWA5); format: biochemical, uncultured soil actinomycetes; conditions: NaCl or NaBr reaction
T2 sequence (F6LWA5 entry or part of it): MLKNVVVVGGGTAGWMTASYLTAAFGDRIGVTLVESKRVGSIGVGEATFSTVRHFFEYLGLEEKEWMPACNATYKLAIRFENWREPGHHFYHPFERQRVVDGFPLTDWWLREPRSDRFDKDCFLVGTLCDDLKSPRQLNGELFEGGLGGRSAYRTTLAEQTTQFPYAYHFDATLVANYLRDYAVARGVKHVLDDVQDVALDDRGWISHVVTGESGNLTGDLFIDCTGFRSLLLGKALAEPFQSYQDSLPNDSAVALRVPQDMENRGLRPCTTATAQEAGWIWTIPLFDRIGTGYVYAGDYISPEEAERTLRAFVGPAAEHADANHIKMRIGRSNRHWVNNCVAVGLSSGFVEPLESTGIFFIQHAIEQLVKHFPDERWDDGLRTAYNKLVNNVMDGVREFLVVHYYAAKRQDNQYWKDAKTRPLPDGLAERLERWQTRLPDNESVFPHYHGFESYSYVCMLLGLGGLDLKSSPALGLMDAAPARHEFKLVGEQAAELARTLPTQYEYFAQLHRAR
Method: as §1

[3] = target: T1, BorH; conditions: previously shown; cited from earlier work
[4] = target: BorF; conditions: read-out: KD, flavin binding to BorF; cited from earlier work
[5] = target: T2, AbeH; assay: Isothermal titration calorimetry, ligand into AbeH; format: binding, uncultured soil actinomycetes
Method: (§2) ITC experiments were performed using a VP-ITC isothermal titration calorimeter (MicroCal) in 20 mM HEPES pH 7.5, 350 mM NaCl, 1 mM ethylenediamine tetraacetic acid (EDTA) and 15% (v/v) glycerol. Solutions of AbeH, BorH, FAD (Chem-Implex), and Trp (Acros Organics) were prepared in the same buffer and degassed under vacuum at 30 °C for 20 min before loading in the syringe or cell. To analyze formation of binary complexes, AbeH or BorH was placed inside the cell, and ligand (FAD or Trp) was injected. For ternary complex titration, one ligand was preincubated with the macromolecule for 30 min at 30 °C to form binary complexes of AbeH/FAD, AbeH/Trp, BorH/FAD, and BorH/Trp before titrating with the second ligand. To test FADH2 binding to AbeH and BorH, FAD was reduced to FADH2 using sodium dithionite and stored under N2. Formation of FADH2 by sodium dithionite was verified using absorbance and fluorescence spectrophotometry.
(§3) ITC experiments were performed with reference power set to 10 μcal/s and Milli-Q water in the reference cell. All experiments were done with a pretitration delay of 20 min, a 5 min interval between injections, and a filter period of 2 s in high feedback gain mode. All experiments were performed at 310 rpm to mix the components in cell and titrant. All other VP-ITC instrumental parameters were set to default settings. Heats of dilution for all titrants were measured by titrating ligand into buffer for binary complex titrations, and by titrating ligand into a solution containing the other ligand but no protein for ternary complex titration.
1.2 mM FAD (2 μL/1 and 5 μL/19 injections) into 18 μM AbeH (Figure 4A)
0.12 mM FADH2 (2 μL/1 and 15 μL/19 injections) into 7 μM AbeH in the presence of sodium dithionite (Figure 4B)
1.4 mM Trp (3 μL/1 and 10 μL/29 injections) into 43 μM AbeH (Figure S7)
16 mM Trp (2 μL/1 and 10 μL/29 injections) into 18 μM AbeH (Figure 5A)
(§4) Titrations were analyzed by manually integrating each injection, subtracting the heat of dilution, and carrying out nonlinear least-squares fit of the calorimetric binding data to a one-site model using Origin 7.0 (Origin Lab). Trp binding experiments were subtracted by point-by-point heat of dilution, and FAD and FADH2 binding experiments were subtracted using the mean heat of the last three injections. For the Trp binding data, n was fixed to 1 based on expected stoichiometry of 1:1 based on FDH crystal structures and as proposed for lower c-value titrations in the literature.[23],[25],[82] The other parameters were not constrained during fitting.

[6] = target: T1, BorH; assay: Isothermal titration calorimetry, ligand into BorH; format: binding, uncultured soil actinomycetes
Method: as §2, with “Solutions” for “ITC experiments were performed using a VP-ITC isothermal titration calorimeter (MicroCal) in 20 mM HEPES pH 7.5, 350 mM NaCl, 1 mM ethylenediamine tetraacetic acid (EDTA) and 15% (v/v) glycerol. Solutions”
as §3, §4

[7] = target: AbeF; conditions: read-out: KD, flavin binding to AbeF; cited from earlier work

Row | SMILES | BorH bromination compared with chlorination of the substrate, in words [1] | Halogenation (chlorination/bromination) of the substrate by AbeH, in words [2] | Halogenation (chlorination/bromination) of the substrate by BorH, in words [1] | Halogenation of the substrate by BorH, in words [3] | further results
1 | N#Cc1ccc2[nH]ccc2c1 [5-cyanoindole] | higher rate of bromination than chlorination | did not halogenate; also recorded: No activity | – | – | –
2 | Nc1ccc2ncccc2c1 [6-aminoquinoline] | higher rate of bromination than chlorination | chlorinated and brominated | halogenated | halogenate | –
3 | Cc1cc2c(cc1C)N(C[C@H](O)[C@H](O)[C@H](O)COP(=O)(O)OP(=O)(O)OC[C@H]1O[C@@H](n3cnc4c(N)ncnc43)[C@H](O)[C@@H]1O)c1[nH]c(=O)[nH]c(=O)c1N2 [FADH2] | – | – | – | – | Kd [4]: 800 nM; Kd ([5]; ITC, read-out: KD, binding to AbeH, ITC): 100 nM and 120 nM; -TDS (-TΔS, ITC, Table S3) ([5]; cell AbeH): 5.7 kcal/mol; DG (ΔG, ITC, Table S3) ([5]; cell AbeH): -9.6 kcal/mol; DH (ΔH, ITC, Table S3) ([5]; cell AbeH): -15.3 ± 0.7 kcal/mol; n (ITC, Table S3) ([5]; cell AbeH): 0.82 ± 0.03; Kd ([6]; ITC, read-out: KD, binding to BorH, ITC): 200 nM and 210 nM; -TDS (-TΔS, ITC, Table S3) ([6]; cell BorH): 15 kcal/mol; DG (ΔG, ITC, Table S3) ([6]; cell BorH): -9.2 kcal/mol; DH (ΔH, ITC, Table S3) ([6]; cell BorH): -24.2 ± 1.6 kcal/mol; n (ITC, Table S3) ([6]; cell BorH): 0.97 ± 0.05; Kd [7]: 1500 nM
4 | NC(=O)c1ccccc1N [Anthranilamide] | – | halogenated | halogenated | halogenate | –
5 | NCCc1c[nH]c2ccc(O)cc12 [Serotonin] | – | did not halogenate; also recorded: No activity | – | – | –
6 | Nc1ccc2cccnc2c1 [7-aminoquinoline] | – | chlorinated and brominated | could not halogenate; also recorded: No activity | – | –
7 | Nc1ccccc1C(=O)CC(N)C(=O)O (centres unmarked) [kynurenine] | – | – | – | halogenate | –
8 | NCCc1c[nH]c2ccccc12 [Tryptamine] | – | No activity | – | halogenate | –
9 | c1ccc2[nH]ccc2c1 [Indole] | higher rate of bromination than chlorination | efficiently chlorinated and brominated | – | – | –
10 | N[C@@H](Cc1c[nH]c2ccc(O)cc12)C(=O)O [5-hydroxytryptophan] | – | did not halogenate; also recorded: No activity | – | – | –
11 | Nc1ccc2c(c1)NC(=O)CO2 [6-amino-2h-1,4-benzoxazin-3(4H)-one, 6-amino-2H-1,4-benzoxazin-3(4H)-one] | higher rate of bromination than chlorination | did not halogenate; also recorded: No activity | could halogenate | – | –
12 | O=C(O)CCc1c[nH]c2ccccc12 [3-indolepropionic acid] | – | halogenated | – | halogenate | –
